Laboratory results as given in PubChem BioAssay AID248 (DTP/NCI, 2004).
Values joined by “and” are separate entries in the source; they are usually repeats but may differ in a detail not shown here. Equal entries are not always repeated. Inconclusive results and toxic doses are left out.

Test system: L1210 leukemia ip in BDF1 mice, survival T/C
Experiment: NCI In Vivo Anticancer Drug Screen. Data for tumor model L1210 Leukemia (intraperitoneal) in B6D2F1 (BDF1) mice
Details: endpoint: mean survival time, higher = longer survival
Method in brief: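 Mice bearing the transplanted tumor received compound or vehicle. Survival of the treated group was divided by that of the vehicle-treated control group to give the ratio.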

[1] = dose: 100.0 mg/kg/injection, schedule: Q04DX003 (ip), vehicle: saline
[2] = dose: 200.0 mg/kg/injection, schedule: Q04DX003 (ip), vehicle: saline
[3] = dose: 400.0 mg/kg/injection, schedule: Q04DX003 (ip), vehicle: saline
[4] = dose: 25.0 mg/kg/injection, schedule: Q01DX009 (ip), vehicle: Klucel (hydroxypropylcellulose) (HPC)
[5] = dose: 50.0 mg/kg/injection, schedule: Q01DX009 (ip), vehicle: Klucel (hydroxypropylcellulose) (HPC)
[6] = dose: 100.0 mg/kg/injection, schedule: Q01DX001 (ip), vehicle: saline
[7] = dose: 100.0 mg/kg/injection, schedule: Q01DX009 (ip), vehicle: Klucel (hydroxypropylcellulose) (HPC)
[8] = dose: 100.0 mg/kg/injection, schedule: Q04DX003 (ip), vehicle: Klucel (hydroxypropylcellulose) (HPC)
[9] = dose: 200.0 mg/kg/injection, schedule: Q01DX001 (ip), vehicle: saline
[10] = dose: 200.0 mg/kg/injection, schedule: Q01DX009 (ip), vehicle: Klucel (hydroxypropylcellulose) (HPC)
[11] = dose: 200.0 mg/kg/injection, schedule: Q04DX003 (ip), vehicle: Klucel (hydroxypropylcellulose) (HPC)
[12] = dose: 400.0 mg/kg/injection, schedule: Q01DX001 (ip), vehicle: saline
[13] = dose: 400.0 mg/kg/injection, schedule: Q01DX009 (ip), vehicle: Klucel (hydroxypropylcellulose) (HPC)
[14] = dose: 400.0 mg/kg/injection, schedule: Q04DX003 (ip), vehicle: Klucel (hydroxypropylcellulose) (HPC)
[15] = dose: 100.0 mg/kg/injection, schedule: Q04DX002 (ip), vehicle: Klucel (hydroxypropylcellulose) (HPC)
[16] = dose: 200.0 mg/kg/injection, schedule: Q04DX002 (ip), vehicle: Klucel (hydroxypropylcellulose) (HPC)
[17] = dose: 400.0 mg/kg/injection, schedule: Q04DX002 (ip), vehicle: Klucel (hydroxypropylcellulose) (HPC)
[18] = dose: 100.0 mg/kg/injection, schedule: Q01DX001 (ip), vehicle: Klucel (hydroxypropylcellulose) (HPC)
[19] = dose: 100.0 mg/kg/injection, schedule: Q04DX003 (ip), vehicle: saline with Tween-80
[20] = dose: 200.0 mg/kg/injection, schedule: Q04DX003 (ip), vehicle: saline with Tween-80

For COc1ccc(CCOC(C)=O)cc1, the T/C (dose: 100.0 mg/kg/injection, schedule: Q04DX002 (ip), vehicle: saline) was 97 % of control, the T/C (dose: 200.0 mg/kg/injection, schedule: Q04DX002 (ip), vehicle: saline) was 102 % of control and the T/C (dose: 400.0 mg/kg/injection, schedule: Q04DX002 (ip), vehicle: saline) was 102 % of control.

With c1ccc(CC(Cc2ccccc2)c2nc3ccccc3s2)cc1 the T/C (dose: 75.0 mg/kg/injection, schedule: Q01DX009 (ip), vehicle: saline) was 98 % of control, the T/C [1] was 98 % of control and the T/C (dose: 150.0 mg/kg/injection, schedule: Q01DX009 (ip), vehicle: saline) was 98 % of control. For the same molecule, the T/C [2] was 92 % of control, the T/C (dose: 300.0 mg/kg/injection, schedule: Q01DX009 (ip), vehicle: saline) was 95 % of control and the T/C [3] was 92 % of control.

For CC(C)CCCC(C)C1CCC2C3CC=C4CC(O)CCC4(C)C3CCC12C (configuration not stated) (tested in a mixture with another compound), the T/C (dose: 50.0 mg/kg/injection, schedule: Q01DX009 (ip), vehicle: water) was 94 % of control, the T/C (dose: 100.0 mg/kg/injection, schedule: Q01DX001 (ip), vehicle: water) was 102 % of control and 108 % of control and the T/C (dose: 100.0 mg/kg/injection, schedule: Q01DX009 (ip), vehicle: water) was 102 % of control. For the same molecule, the T/C (dose: 100.0 mg/kg/injection, schedule: Q04DX003 (ip), vehicle: water) was 90 % of control, the T/C (dose: 200.0 mg/kg/injection, schedule: Q01DX001 (ip), vehicle: water) was 105 % of control and the T/C (dose: 200.0 mg/kg/injection, schedule: Q01DX009 (ip), vehicle: water) was 103 % of control. For the same molecule, the T/C (dose: 200.0 mg/kg/injection, schedule: Q04DX003 (ip), vehicle: water) was 88 % of control, the T/C (dose: 400.0 mg/kg/injection, schedule: Q01DX001 (ip), vehicle: water) was 105 % of control and the T/C (dose: 400.0 mg/kg/injection, schedule: Q04DX003 (ip), vehicle: water) was 87 % of control.

With CC(C)=CCC/C(C)=C/CC(N)Cc1ccccc1 (configuration not stated) the T/C (dose: 12.5 mg/kg/injection, schedule: Q01DX009 (ip), vehicle: Klucel (hydroxypropylcellulose) (HPC)) was 94 % of control, the T/C [4] was 97 % of control and the T/C [5] was 92 % of control.

Cc1ccc(S(=O)(=O)Oc2ccc(C(C)(C)c3ccc(OS(=O)(=O)c4ccc(C)cc4)cc3)cc2)cc1 was tested, and the T/C (dose: 50.0 mg/kg/injection, schedule: Q01DX001 (ip), vehicle: saline) was 98 % of control, the T/C [6] was 93 % of control and the T/C [7] was 96 % of control. For the same molecule, the T/C [8] was 93 % of control, the T/C [9] was 93 % of control and the T/C [10] was 91 % of control. For the same molecule, the T/C [11] was 95 % of control, the T/C [12] was 90 % of control and the T/C [13] was 91 % of control. The T/C [14] was 98 % of control.

Cc1ccc(C)c(NC(=O)Oc2ccccc2F)c1 was tested, and the T/C [7] was 101 % of control, the T/C [8] was 98 % of control and the T/C [10] was 91 % of control. For the same molecule, the T/C [11] was 113 % of control and the T/C [14] was 101 % of control.

For Cc1cc(C)c(NC(=O)c2c(Cl)c(Cl)c(Cl)c(Cl)c2C(=O)O)c(C)c1, the T/C [4] was 102 % of control, the T/C [5] was 105 % of control and the T/C [7] was 94 % of control and 116 % of control.

Nc1ncnc2c1ncn2C1C=CC(CO)O1 (configuration not stated) was tested, and the T/C [6] was 102 % of control, the T/C [9] was 100 % of control and the T/C [12] was 102 % of control.

In the case of CCCc1cc(=O)[nH]c(=S)[nH]1, the T/C [8] is reported as 93 % of control, the T/C [11] is reported as 96 % of control and the T/C [14] is reported as 101 % of control.

With O=C(O)/C=C\C(Cl)(Cl)Cl the T/C (dose: 100.0 mg/kg/injection, schedule: Q04DX002 (ip), vehicle: saline with Tween-80) was 97 % of control and the T/C (dose: 200.0 mg/kg/injection, schedule: Q04DX002 (ip), vehicle: saline with Tween-80) was 93 % of control.

With COc1ccc(C(=O)/C=C/c2ccccc2O)cc1 the T/C (dose: 75.0 mg/kg/injection, schedule: Q04DX003 (ip), vehicle: saline) was 104 % of control, the T/C (dose: 150.0 mg/kg/injection, schedule: Q04DX003 (ip), vehicle: saline) was 101 % of control and the T/C (dose: 300.0 mg/kg/injection, schedule: Q04DX003 (ip), vehicle: saline) was 96 % of control.

For COCCOCCN1CCN(CCCN2c3ccccc3Sc3ccc(C(F)(F)F)cc32)CC1, the T/C (dose: 4.37 mg/kg/injection, schedule: Q04DX003 (ip), vehicle: saline) was 115 % of control, the T/C (dose: 6.25 mg/kg/injection, schedule: Q04DX003 (ip), vehicle: saline) was 107 % of control and the T/C (dose: 8.75 mg/kg/injection, schedule: Q04DX003 (ip), vehicle: saline) was 121 % of control. The T/C (dose: 12.5 mg/kg/injection, schedule: Q04DX003 (ip), vehicle: saline) was 110 % of control, the T/C (dose: 17.5 mg/kg/injection, schedule: Q04DX003 (ip), vehicle: saline) was 86 % of control and the T/C (dose: 50.0 mg/kg/injection, schedule: Q04DX003 (ip), vehicle: saline) was 151 % of control.

In the case of O=S1(=O)CC(N2CCCCC2)C12CC1c3ccccc3C2c2ccccc21 (configuration not stated), the T/C [15] is reported as 104 % of control, the T/C [16] is reported as 101 % of control and the T/C [17] is reported as 101 % of control.

In the case of O=C(O)C(Cc1cccs1)Cc1cccs1, the T/C (dose: 50.0 mg/kg/injection, schedule: Q04DX003 (ip), vehicle: carboxymethylcellulose (CMC)) is reported as 120 % of control, the T/C (dose: 100.0 mg/kg/injection, schedule: Q04DX003 (ip), vehicle: carboxymethylcellulose (CMC)) is reported as 104 % of control and the T/C (dose: 200.0 mg/kg/injection, schedule: Q04DX003 (ip), vehicle: carboxymethylcellulose (CMC)) is reported as 108 % of control.

With C=CCN1C(=O)C(c2ccccc2)C2(CCN(C)CC2)C1=O (configuration not stated) the T/C (dose: 25.0 mg/kg/injection, schedule: Q01DX001 (ip), vehicle: Klucel (hydroxypropylcellulose) (HPC)) was 108 % of control, the T/C (dose: 50.0 mg/kg/injection, schedule: Q01DX001 (ip), vehicle: Klucel (hydroxypropylcellulose) (HPC)) was 108 % of control and the T/C [18] was 98 % of control and 104 % of control.

With CCCCCC#CCO the T/C [19] was 108 % of control and the T/C [20] was 101 % of control.

In the case of CC(C)OC(=O)Nc1ccc(C(F)(F)F)cc1, the T/C [15] is reported as 97 % of control and 100 % of control, the T/C [16] is reported as 88 % of control and the T/C [17] is reported as 103 % of control and 112 % of control.

For CCOC(=O)C1CCCCC1, the T/C [1] was 102 % of control, the T/C [2] was 98 % of control and the T/C [3] was 91 % of control.

In the case of COc1cc2c(cc1OC)N(S(=O)(=O)c1ccc(C)cc1)CCCC2=O, the T/C [7] is reported as 96 % of control, the T/C [8] is reported as 96 % of control and the T/C [10] is reported as 91 % of control. For the same molecule, the T/C [11] was 93 % of control, the T/C [13] was 93 % of control and the T/C [14] was 102 % of control.

CCN(C(=O)c1cc(OC)c(OC)c(OC)c1)C1CCCCC1 was tested, and the T/C [19] was 101 % of control, the T/C [20] was 107 % of control and the T/C (dose: 400.0 mg/kg/injection, schedule: Q04DX003 (ip), vehicle: saline with Tween-80) was 96 % of control.

For CSc1ncnc2c1ncn2C1OC(CCc2ccccc2)C(O)C1O (configuration not stated), the T/C [18] was 100 % of control, the T/C (dose: 200.0 mg/kg/injection, schedule: Q01DX001 (ip), vehicle: Klucel (hydroxypropylcellulose) (HPC)) was 96 % of control and the T/C (dose: 400.0 mg/kg/injection, schedule: Q01DX001 (ip), vehicle: Klucel (hydroxypropylcellulose) (HPC)) was 98 % of control.

CCOC(=O)CSc1ccc([N+](=O)[O-])cc1Cl was tested, and the T/C [7] was 102 % of control, the T/C [15] was 96 % of control and 101 % of control and the T/C [10] was 106 % of control. The T/C [16] was 104 % of control and 106 % of control, the T/C [13] was 104 % of control and the T/C [17] was 95 % of control and 101 % of control.

With C=COC(=O)c1ccccc1 (tested in a mixture with another compound) the T/C (dose: 100.0 mg/kg/injection, schedule: Q01DX001 (ip), vehicle: other) was 97 % of control, the T/C [6] was 110 % of control [middle of 4 runs] and the T/C (dose: 200.0 mg/kg/injection, schedule: Q01DX001 (ip), vehicle: other) was 97 % of control. For the same molecule, the T/C [9] was 97 % of control and 105 % of control and 108 % of control, the T/C (dose: 400.0 mg/kg/injection, schedule: Q01DX001 (ip), vehicle: other) was 86 % of control and the T/C [12] was 101 % of control and 105 % of control and 108 % of control.

In the case of c1ccc2ocnc2c1, the T/C [8] is reported as 94 % of control, the T/C [11] is reported as 96 % of control and the T/C [14] is reported as 113 % of control.

In the case of CN1CCC(O)(c2ccccc2)C(C(=O)c2ccccc2)C1 (configuration not stated), the T/C [6] is reported as 101 % of control and the T/C [9] is reported as 93 % of control.
